Test results reported in patent publication US12391648B2, “Pyridyloxy thioester derivative and preparation method therefor, herbicidal composition, and application” (Qingdao Kingagroot Chemical Compound Co., Ltd., priority 2018, dated 2025).

Each compound was assayed on Monochoria vaginalis (assay: Weed control effect evaluation in rice field). Details: 1000 g/ha, paddy water application at 0.5 leaf stage, 14 days after treatment, weeds resistant to pyrazosulfuron-ethyl and penoxsulam.
Format: in vivo
From the text: (§1) The activity level standard of harmful plants destruction (i. e. growth inhibition rate) is as follows: • Level 5: the growth inhibition rate is greater than 85%; • Level 4: the growth inhibition rate is equal to or greater than 60% and less than 85%; • Level 3: the growth inhibition rate is equal to or greater than 40% and less than 60%; • Level 2: the growth inhibition rate is equal to or greater than 20% and less than 40%; • Level 1: the growth inhibition rate is equal to or greater than 5% and less than 20%; • Level 0: the growth inhibition rate is less than 5%;
(§2) Transplanted rice safety evaluation and weed control effect evaluation in rice field:
Rice field soil was loaded into a 1/1,000,000 ha pot. The seeds of Monochoria vaginalis were sowed and gently covered with soil, then left to stand still in greenhouse in the state of 0.5-1 cm of water storage. It was kept at 3-4 cm of water storage thereafter. The weeds were treated by dripping the WP or SC water diluents prepared according to the common preparation method of the compounds of the present invention with pipette homogeneously to achieve specified effective amount when Monochoria vaginalis reached 0. 5 leaf stage.
(§3) The fertility condition of Monochoria vaginalis 14 days and rice 21 days after the treatment of the compound of the invention with the naked eye.
Note: The seeds of Monochoria vaginalis were collected from Heilongjing Province of China.

With `COCCCSC(=O)C(C)Oc1nc(F)c(Cl)c(N)c1Cl` (stereo not drawn) [Compound 88] as the compound, how does the “Monochoria Vaginalis, activity standard level 0-5” value read?
Its value is 5 (Level 5: the growth inhibition rate is greater than 85%).

`CCCCOCCSC(=O)C(C)Oc1nc(F)c(Cl)c(N)c1Cl` (stereo not drawn) [Compound 87] was tested. Which “Monochoria Vaginalis, activity standard level 0-5” value did it give?
Its value is 5 (Level 5: the growth inhibition rate is greater than 85%).

What follows are compounds tested on Monochoria vaginalis (assay: Post-emergence test experiment (Table 3, 1000 g/ha)). Details: post-emergence spray, after 3 weeks, fresh weight inhibition.
Format: in vivo
Procedure, shortened: (§4)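 Activity graded levels 0-5 by fresh-weight inhibition (level 5 above 85%, level 0 below 5%), assessed 3 weeks after treatment. Plants grown in greenhouse pots were sprayed post-emergence at 2-3 leaves using acetone/tween-80 solutions with methyl oleate synergist (1.5 L/ha).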

With `COCCCSC(=O)C(C)Oc1nc(F)c(Cl)c(N)c1Cl` (stereo not drawn) [Compound 88] as the compound, how does the “Activity level (growth inhibition rate) Monochoria Vaginalis” value read?
Its value is 5 (Level 5: the growth inhibition rate is greater than 85%).

`CCCCOCCSC(=O)C(C)Oc1nc(F)c(Cl)c(N)c1Cl` (stereo not drawn) [Compound 87] was tested. Which “Activity level (growth inhibition rate) Monochoria Vaginalis” value did it give?
The value was 5 (Level 5: the growth inhibition rate is greater than 85%).

What follows are compounds tested on Digitaria sanguinalis in the same assay as above. Details: post-emergence spray, after 3 weeks, fresh weight inhibition.
Format: in vivo
Procedure, shortened: as §4

For `COCCCSC(=O)C(C)Oc1nc(F)c(Cl)c(N)c1Cl` (stereo not drawn) [Compound 88], which “Activity level (growth inhibition rate) Digitaria sanguinalis” value is on record?
The value was 5 (Level 5: the growth inhibition rate is greater than 85%).

Which “Activity level (growth inhibition rate) Digitaria sanguinalis” value does the source give for `CCCCOCCSC(=O)C(C)Oc1nc(F)c(Cl)c(N)c1Cl` (stereo not drawn) [Compound 87] here?
Its value is 5 (Level 5: the growth inhibition rate is greater than 85%).

Each compound was assayed on Setaria viridis in the same assay as above. Details: post-emergence spray, after 3 weeks, fresh weight inhibition.
Format: in vivo
Procedure, shortened: as §4

`COCCCSC(=O)C(C)Oc1nc(F)c(Cl)c(N)c1Cl` (stereo not drawn) [Compound 88] was tested. Which “Activity level (growth inhibition rate) Setaria viridis” value did it give?
Its value is 5 (Level 5: the growth inhibition rate is greater than 85%).

Which “Activity level (growth inhibition rate) Setaria viridis” value does the source give for `CCCCOCCSC(=O)C(C)Oc1nc(F)c(Cl)c(N)c1Cl` (stereo not drawn) [Compound 87] here?
Its value is 5 (Level 5: the growth inhibition rate is greater than 85%).

What follows are compounds tested on Abutilon theophrasti in the same assay as above. Details: post-emergence spray, after 3 weeks, fresh weight inhibition.
Format: in vivo
Procedure, shortened: as §4

With `COCCCSC(=O)C(C)Oc1nc(F)c(Cl)c(N)c1Cl` (stereo not drawn) [Compound 88] as the compound, how does the “Activity level (growth inhibition rate) Abutilon theophrasti” value read?
Its value is 5 (Level 5: the growth inhibition rate is greater than 85%).

How did the “Activity level (growth inhibition rate) Abutilon theophrasti” value turn out when `CCCCOCCSC(=O)C(C)Oc1nc(F)c(Cl)c(N)c1Cl` (stereo not drawn) [Compound 87] was run?
Its value is 5 (Level 5: the growth inhibition rate is greater than 85%).

The compounds below were run on Galium spurium in the same assay as above. Details: post-emergence spray, after 3 weeks, fresh weight inhibition.
Format: in vivo
Procedure, shortened: as §4

`COCCCSC(=O)C(C)Oc1nc(F)c(Cl)c(N)c1Cl` (stereo not drawn) [Compound 88] was tested. Which “Activity level (growth inhibition rate) Galium spurium” value did it give?
Its value is 5 (Level 5: the growth inhibition rate is greater than 85%).

With `CCCCOCCSC(=O)C(C)Oc1nc(F)c(Cl)c(N)c1Cl` (stereo not drawn) [Compound 87] as the compound, how does the “Activity level (growth inhibition rate) Galium spurium” value read?
The value was 5 (Level 5: the growth inhibition rate is greater than 85%).

Each compound was assayed on Leptochloa chinensis in the same assay as above. Details: post-emergence spray, after 3 weeks, fresh weight inhibition.
Format: in vivo
Procedure, shortened: as §4

How did the “Activity level (growth inhibition rate) Leptochloa chinensis” value turn out when `COCCCSC(=O)C(C)Oc1nc(F)c(Cl)c(N)c1Cl` (stereo not drawn) [Compound 88] was run?
Its value is 5 (Level 5: the growth inhibition rate is greater than 85%).

How did the “Activity level (growth inhibition rate) Leptochloa chinensis” value turn out when `CCCCOCCSC(=O)C(C)Oc1nc(F)c(Cl)c(N)c1Cl` (stereo not drawn) [Compound 87] was run?
Its value is 5 (Level 5: the growth inhibition rate is greater than 85%).

The compounds below were run on ALS resistant Echinochloa crusgalli (assay: Post-emergence test experiment (Table 4), weed control). Details: 600 g/ha active ingredient, plus water 450 kg/ha, after 3 weeks.
Format: in vivo
From the text: as §1
(§5) The above described growth inhibition rate is fresh weight inhibition rate.
(§6) Post-emergence test experiment: Monocotyledonous and dicotyledonous weed seeds and main crop seeds (i. e. wheat, corn, rice, soybean, cotton, oilseed, millet and sorghum.) were put into a plastic pot loaded with soil. Then covered with 0.5-2 cm soil, the seeds were allowed to grow in good greenhouse environment. The test plants were treated at 2-3 leaf stage 2 weeks after sowing. The test compounds of the invention were dissolved with acetone respectively, then added with tween-80, and using 1.5 liters per hectare of an emulsible concentrate of methyl oleate as a synergist, and diluted by certain amount of water to certain concentration. The solution was sprayed to the plants with a sprayer. Then the plants were cultured for 3 weeks in the greenhouse, and the experiment result of weed controlling effect after 3 weeks was listed in tables 3-4.
(§7) […] Echinochloa crusgalli and Cyperus iria were collected from Ningxia Hui Autonomous Region of China, which had evolved resistance to ALS inhibiting herbicides. • Control compound A:

Which “ALS resistant Echinochloa crusgalli, activity level (growth inhibition rate)” value does the source give for `COCCCSC(=O)C(C)Oc1nc(F)c(Cl)c(N)c1Cl` (stereo not drawn) [Compound 88] here?
Its value is 5 (Level 5: the growth inhibition rate is greater than 85%).

Which “ALS resistant Echinochloa crusgalli, activity level (growth inhibition rate)” value does the source give for `CCCCOCCSC(=O)C(C)Oc1nc(F)c(Cl)c(N)c1Cl` (stereo not drawn) [Compound 87] here?
The value was 5 (Level 5: the growth inhibition rate is greater than 85%).

What follows are compounds tested on ALS resistant Cyperus iria in the same assay as above. Details: 600 g/ha active ingredient, plus water 450 kg/ha, after 3 weeks.
Format: in vivo
From the text: as §1, §5, §6, §7

`COCCCSC(=O)C(C)Oc1nc(F)c(Cl)c(N)c1Cl` (stereo not drawn) [Compound 88] was tested. Which “ALS resistant Cyperus iria, activity level (growth inhibition rate)” value did it give?
The value was 5 (Level 5: the growth inhibition rate is greater than 85%).

With `CCCCOCCSC(=O)C(C)Oc1nc(F)c(Cl)c(N)c1Cl` (stereo not drawn) [Compound 87] as the compound, how does the “ALS resistant Cyperus iria, activity level (growth inhibition rate)” value read?
The value was 5 (Level 5: the growth inhibition rate is greater than 85%).

The compounds below were run on rice (japonica rice) (assay: Transplanted rice safety evaluation). Details: 1000 g/ha, transplanted 3-leaf stage japonica rice, treated 5 days after transplantation, 21 days after treatment.
Format: in vivo
From the text: as §1, §2
In addition, the rice field soil that loaded into the 1/1,000,000 ha pot was leveled to keep water storage at 3-4 cm depth. The 3-leaf stage rice (japonica rice) was transplanted at 3 cm of transplanting depth the next day. The compound of the present invention was treated by the same way after 5 days of transplantation.
as §3

Which “Rice, activity standard level 0-5 (safety)” value does the source give for `COCCCSC(=O)C(C)Oc1nc(F)c(Cl)c(N)c1Cl` (stereo not drawn) [Compound 88] here?
Its value is 0 (Level 0: the growth inhibition rate is less than 5%).

Which “Rice, activity standard level 0-5 (safety)” value does the source give for `CCCCOCCSC(=O)C(C)Oc1nc(F)c(Cl)c(N)c1Cl` (stereo not drawn) [Compound 87] here?
Its value is 0 (Level 0: the growth inhibition rate is less than 5%).

The compounds below were run on Japonica rice (assay: Post-emergence test experiment (Table 4), crop safety). Details: 600 g/ha active ingredient, plus water 450 kg/ha, after 3 weeks.
Format: in vivo
From the text: as §1, §5, §6, §7

`COCCCSC(=O)C(C)Oc1nc(F)c(Cl)c(N)c1Cl` (stereo not drawn) [Compound 88] was tested. Which “Japonica rice, activity level (growth inhibition rate)” value did it give?
Its value is 0 (Level 0: the growth inhibition rate is less than 5%).

For `CCCCOCCSC(=O)C(C)Oc1nc(F)c(Cl)c(N)c1Cl` (stereo not drawn) [Compound 87], which “Japonica rice, activity level (growth inhibition rate)” value is on record?
The value was 0 (Level 0: the growth inhibition rate is less than 5%).

The compounds below were run on Indica rice in the same assay as above. Details: 600 g/ha active ingredient, plus water 450 kg/ha, after 3 weeks.
Format: in vivo
From the text: as §1, §5, §6, §7

With `COCCCSC(=O)C(C)Oc1nc(F)c(Cl)c(N)c1Cl` (stereo not drawn) [Compound 88] as the compound, how does the “Indica rice, activity level (growth inhibition rate)” value read?
Its value is 0 (Level 0: the growth inhibition rate is less than 5%).

How did the “Indica rice, activity level (growth inhibition rate)” value turn out when `CCCCOCCSC(=O)C(C)Oc1nc(F)c(Cl)c(N)c1Cl` (stereo not drawn) [Compound 87] was run?
The value was 0 (Level 0: the growth inhibition rate is less than 5%).
